# In ChEMBL document CHEMBL4196005, “Novel butanehydrazide derivatives of purine-2,6-dione as dual PDE4/7 inhibitors with potential anti-inflammatory activity: Design, synthesis and biological evaluation” (Eur J Med Chem, 2018):
# Active and inactive are the calls of the source. The calls are words filed in the database; no cut-off is given here.
# How the values were obtained:
# [1] = target: 3',5'-cyclic-AMP phosphodiesterase 4B (Homo sapiens, UniProt Q07343); assay: Inhibition of human GST-tagged PDE4B expressed in baculovirus infected Sf9 insect cells using cAMP as substrate after 10 mins by PDE-Glo Phosphodiesterase Assay
# 3',5'-cyclic-AMP phosphodiesterase 4B, sequence (Q07343 whole entry): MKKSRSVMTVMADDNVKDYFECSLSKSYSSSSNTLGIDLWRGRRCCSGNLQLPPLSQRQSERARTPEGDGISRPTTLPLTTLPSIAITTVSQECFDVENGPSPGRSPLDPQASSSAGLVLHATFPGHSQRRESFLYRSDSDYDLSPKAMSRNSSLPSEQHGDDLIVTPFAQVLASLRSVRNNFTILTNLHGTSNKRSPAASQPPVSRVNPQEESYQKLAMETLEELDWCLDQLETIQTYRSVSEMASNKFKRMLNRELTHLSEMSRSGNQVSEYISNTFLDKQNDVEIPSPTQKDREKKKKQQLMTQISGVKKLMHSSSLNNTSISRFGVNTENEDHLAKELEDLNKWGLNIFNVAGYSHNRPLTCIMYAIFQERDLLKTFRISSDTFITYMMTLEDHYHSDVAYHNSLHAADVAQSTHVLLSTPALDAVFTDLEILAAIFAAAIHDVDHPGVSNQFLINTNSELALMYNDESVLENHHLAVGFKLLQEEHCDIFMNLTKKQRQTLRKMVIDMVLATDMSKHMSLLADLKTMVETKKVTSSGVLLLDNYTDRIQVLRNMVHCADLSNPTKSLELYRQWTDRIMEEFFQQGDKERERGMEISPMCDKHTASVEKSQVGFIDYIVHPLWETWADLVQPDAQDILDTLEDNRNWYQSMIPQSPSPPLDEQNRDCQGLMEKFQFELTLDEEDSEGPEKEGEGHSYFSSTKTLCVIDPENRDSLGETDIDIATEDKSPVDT
# [2] = target: T1, High affinity 3',5'-cyclic-AMP phosphodiesterase 7A (Homo sapiens, UniProt Q13946); assay: Inhibition of human GST-tagged PDE7A expressed in baculovirus infected Sf9 insect cells using cAMP as substrate after 10 mins by PDE-Glo Phosphodiesterase Assay
# T1 sequence (Q13946 whole entry): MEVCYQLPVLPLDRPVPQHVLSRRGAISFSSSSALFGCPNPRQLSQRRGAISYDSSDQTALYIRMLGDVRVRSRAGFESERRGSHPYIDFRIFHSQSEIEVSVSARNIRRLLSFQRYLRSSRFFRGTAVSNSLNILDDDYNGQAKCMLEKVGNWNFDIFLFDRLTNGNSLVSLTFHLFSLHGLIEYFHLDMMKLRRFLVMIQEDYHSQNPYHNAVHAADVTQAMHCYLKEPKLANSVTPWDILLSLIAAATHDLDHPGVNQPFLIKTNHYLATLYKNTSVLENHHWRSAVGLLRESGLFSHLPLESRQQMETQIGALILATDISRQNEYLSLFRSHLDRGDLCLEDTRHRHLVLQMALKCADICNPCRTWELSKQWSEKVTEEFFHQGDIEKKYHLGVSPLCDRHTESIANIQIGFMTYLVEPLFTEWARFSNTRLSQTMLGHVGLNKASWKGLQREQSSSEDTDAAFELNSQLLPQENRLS
# [3] = Inhibition of PDE4 (unknown origin) using [3H]-cAMP as substrate after 60 mins by scintillation proximity assay; design: species or system Homo sapiens
# [4] = Inhibition of human recombinant His-tagged PDE7 expressed in baculovirus infected Sf9 insect cells using [3H]-cAMP as substrate after 60 mins by scintillation proximity assay
# [5] = Inhibition of PDE7 in human HUT78 cell lysate using cAMP as substrate after 20 mins by scintillation proximity assay
# [6] = Inhibition of PDE4 in human HUT78 cell lysate using cAMP as substrate after 20 mins by scintillation proximity assay
# [7] = target: T1, High affinity 3',5'-cyclic-AMP phosphodiesterase 7A; assay: Inhibition of human C-terminal FLAG-tagged PDE7A expressed in baculovirus infected Sf9 cells using [3H]-cAMP as substrate after 15 mins by scintillation proximity assay
# [8] = Inhibition of human PDE4 using [3H]-cAMP as substrate after 15 mins by scintillation proximity assay
# [9] = target: T1, High affinity 3',5'-cyclic-AMP phosphodiesterase 7A; assay: Inhibition of human recombinant FLAG-tagged PDE7A expressed in African green monkey COS7 cells using [3H]cAMP as substrate after 30 mins by scintillation counting analysis; type: cell-based
# [10] = Inhibition of guinea pig PDE4 using [3H]cAMP as substrate after 30 mins
# Rattus norvegicus [11] = assay: Antiinflammatory activity in albino Wistar rat assessed as inhibition of LPS-induced TNFalpha production in plasma at 50 mg/kg, ip after 1.5 hrs by ELISA relative to control; type: functional
# Rattus norvegicus [12] = assay: Antiinflammatory activity in albino Wistar rat assessed as inhibition of LPS-induced TNFalpha production in plasma at 50 mg/kg, ip after 1 hr by ELISA; type: functional, organism-based
# Rattus norvegicus [13] = assay: Antiinflammatory activity in albino Wistar rat assessed as inhibition of LPS-induced TNFalpha production in plasma at 50 mg/kg, ip after 2 hrs by ELISA; type: functional, organism-based
# Mus musculus = assay: In vivo inhibition of PDE4 in Balb/c mouse assessed as plasma cAMP levels at 100 mg/kg, po after 20 mins by RIA (reference value: 80.5 pmol/ml); type: functional
# [14] = target: T1, High affinity 3',5'-cyclic-AMP phosphodiesterase 7A; assay: Inhibition of PDE7A1 (unknown origin) expressed in baculovirus infected insect cells using [3H]cAMP as substrate preincubated for 5 mins followed by substrate addition and measured after 15 mins by scintillation proximity assay
# [15] = target: 3',5'-cyclic-AMP phosphodiesterase 4D (Homo sapiens, UniProt Q08499); assay: Inhibition of PDE4D3 (unknown origin) using [3H]cAMP as substrate preincubated for 5 mins followed by substrate addition and measured after 15 mins by scintillation proximity assay
# 3',5'-cyclic-AMP phosphodiesterase 4D, sequence (Q08499 whole entry): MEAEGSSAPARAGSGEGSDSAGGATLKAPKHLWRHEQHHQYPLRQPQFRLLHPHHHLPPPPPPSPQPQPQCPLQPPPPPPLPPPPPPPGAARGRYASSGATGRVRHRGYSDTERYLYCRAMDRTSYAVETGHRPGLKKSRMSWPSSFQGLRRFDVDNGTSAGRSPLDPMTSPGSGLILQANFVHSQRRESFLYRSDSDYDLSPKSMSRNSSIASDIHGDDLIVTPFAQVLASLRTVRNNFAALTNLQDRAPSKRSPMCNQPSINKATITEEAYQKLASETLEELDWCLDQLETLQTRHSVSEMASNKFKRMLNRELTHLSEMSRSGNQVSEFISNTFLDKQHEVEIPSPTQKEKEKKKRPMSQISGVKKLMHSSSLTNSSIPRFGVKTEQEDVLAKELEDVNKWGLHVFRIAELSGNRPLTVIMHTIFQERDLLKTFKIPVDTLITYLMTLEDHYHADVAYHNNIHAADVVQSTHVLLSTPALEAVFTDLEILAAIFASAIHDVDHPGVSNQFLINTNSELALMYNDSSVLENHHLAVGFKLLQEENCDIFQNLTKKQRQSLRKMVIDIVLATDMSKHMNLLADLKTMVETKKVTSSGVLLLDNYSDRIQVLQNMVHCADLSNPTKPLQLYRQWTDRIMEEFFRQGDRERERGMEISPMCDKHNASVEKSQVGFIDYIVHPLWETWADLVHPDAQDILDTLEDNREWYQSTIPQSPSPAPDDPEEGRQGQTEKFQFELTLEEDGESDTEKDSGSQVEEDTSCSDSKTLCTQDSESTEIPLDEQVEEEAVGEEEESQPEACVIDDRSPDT
SMILES,IC50 [1],IC50 [2],further results
Cn1c(=O)c2c(ncn2CCCC(=O)N/N=C/c2ccc(O)cc2O)n(C)c1=O,> 200 µM,> 200 µM,
CCCOc1nc2c(c(=O)n(C)c(=O)n2C)n1CCCC(=O)N/N=C/c1ccc(O)cc1O,116 µM,56.1 µM,
CCCOc1nc2c(c(=O)n(C)c(=O)n2C)n1CCCC(=O)N/N=C/c1ccccc1,51.8 µM,92.9 µM,
CCOc1nc2c(c(=O)n(C)c(=O)n2C)n1CCCC(=O)N/N=C/c1ccc(OC)cc1O,> 200 µM,> 200 µM,
COc1ccc(/C=N/NC(=O)CCCn2c(NCc3ccccc3)nc3c2c(=O)n(C)c(=O)n3C)c(O)c1,44 µM,52.8 µM,
CCC(C)(O)c1oc(=O)c2ccccc2c1-c1ccc(OC)c(OC2CCCC2)c1 (stereo not given),,,IC50 [3]: 3.8 µM; IC50 [4]: 3.1 µM
Cn1c(=O)c2c(nc(NCc3ccco3)n2CCCC(=O)N/N=C/c2ccc(O)cc2O)n(C)c1=O,4.4 µM,10.5 µM,
CC(C)Cn1c(=O)n(C)c(=O)c2[nH]cnc21 [ISOBUTYLMETHYLXANTHINE],28.2 µM,85.6 µM,
CCCOc1nc2c(c(=O)n(C)c(=O)n2C)n1CCCC(=O)N/N=C/c1ccc(OC)cc1O,47.8 µM,89.3 µM,
CCOC(=O)c1sc(Nc2nc(N3CCC(O)CC3)cc(N3CCC(O)CC3)n2)nc1C,,,IC50 [5]: 0.06 µM; IC50 [6]: 3.2 µM
COc1ccc(-c2cc3c(n2-c2ccc(S(=O)(=O)Nc4nc(C)cc(C)n4)cc2)CCC(N2CCN(C)CC2)C3)cc1C (stereo not given),,,IC50 [7]: 0.014 µM; IC50 [8]: 0.63 µM
CCOc1cc2cc(CO)c(CO)c(-c3ccnc(-n4nc(-c5cccnc5)c5ccccc5c4=O)c3)c2cc1OCC,,,IC50 [9]: 1.7 µM; IC50 [10]: 0.00013 µM
Cn1c(=O)c2c(nc(NCc3ccccc3)n2CCCC(=O)N/N=C/c2ccccc2O)n(C)c1=O,> 200 µM,33.6 µM,
COc1ccc(C2CNC(=O)C2)cc1OC1CCCC1 (stereo not given) [ROLIPRAM],,> 200 µM,
CCOC(=O)c1sc(Nc2nc(NCc3cc(OC)c(OC)c(OC)c3)cc(N3CCC(N(C)C)CC3)n2)nc1C,,,IC50 [5]: 0.003 µM; IC50 [6]: 3 µM
Cn1c(=O)c2c(nc(NCc3ccccc3)n2CCCC(=O)N/N=C/c2ccc(O)c(O)c2O)n(C)c1=O,1.9 µM,8.1 µM,inhibition in vivo at 50 mg/kg (Rattus norvegicus [11]): 53%; inhibition (Rattus norvegicus [12]): inactive; inhibition (Rattus norvegicus [13]): inactive
Cn1c(=O)c2nc[nH]c2n(C)c1=O.O [THEOPHYLLINE],> 200 µM,,Activity (Mus musculus): 296.9 pmol/mL
Cn1c(=O)c2c(nc(NCc3ccco3)n2CCCC(=O)N/N=C/c2ccccc2O)n(C)c1=O,12.5 µM,> 200 µM,
Cn1c(=O)c2c(nc(NCCc3ccccc3)n2CCCC(=O)N/N=C/c2ccc(O)c(O)c2O)n(C)c1=O,1.4 µM,3.2 µM,inhibition in vivo at 50 mg/kg (Rattus norvegicus [11]): 84%
Cc1ccc([N+](=O)[O-])cc1S(=O)(=O)N(C)C,175 µM,2.1 µM,
COc1ccc(C2=NN(C3CCCC3)C(=O)C3CC=CCC23)cc1Cl (stereo not given),,,IC50 [14]: 0.018 µM; IC50 [15]: 0.00078 µM
Cn1c(=O)c2c(ncn2CCCC(=O)N/N=C/c2ccccc2O)n(C)c1=O,> 200 µM,> 200 µM,
Cn1c(=O)c2c(nc(NCc3ccccc3)n2CCCC(=O)N/N=C/c2ccc(O)cc2O)n(C)c1=O,5.5 µM,116 µM,
Cn1c(=O)c2c(nc(NCc3ccco3)n2CCCC(=O)N/N=C/c2ccc(O)c(O)c2O)n(C)c1=O,7.4 µM,3.8 µM,inhibition in vivo at 50 mg/kg (Rattus norvegicus [11]): 88%
CCOc1nc2c(c(=O)n(C)c(=O)n2C)n1CCCC(=O)N/N=C/c1ccccc1O,7.9 µM,27.6 µM,

# More lines, main results first:
IC50 [1],IC50 [2],SMILES,further results
37 µM,48.9 µM,CCOc1nc2c(c(=O)n(C)c(=O)n2C)n1CCCC(=O)N/N=C/c1ccccc1,
1.8 µM,9.5 µM,Cn1c(=O)c2c(nc(NCc3ccccn3)n2CCCC(=O)N/N=C/c2ccc(O)c(O)c2O)n(C)c1=O,
> 200 µM,> 200 µM,CCOc1nc2c(c(=O)n(C)c(=O)n2C)n1CCCC(=O)N/N=C/c1ccccc1OC,
26.9 µM,7.3 µM,Cn1c(=O)c2c(nc(NCCc3ccccc3)n2CCCC(=O)N/N=C/c2ccccc2O)n(C)c1=O,
31.1 µM,11.7 µM,CCCOc1nc2c(c(=O)n(C)c(=O)n2C)n1CCCC(=O)N/N=C/c1ccccc1O,
16.2 µM,141 µM,CCOc1nc2c(c(=O)n(C)c(=O)n2C)n1CCCC(=O)N/N=C/c1ccc(O)cc1O,
7.7 µM,> 200 µM,Cn1c(=O)c2c(nc(NCc3ccccn3)n2CCCC(=O)N/N=C/c2ccccc2O)n(C)c1=O,
70.8 µM,69.8 µM,COc1ccc(/C=N/NC(=O)CCCn2c(NCc3ccco3)nc3c2c(=O)n(C)c(=O)n3C)c(O)c1,
